102 compounds from PubChem BioAssay AID1996 can be followed below.

Each structure is given as a SMILES string. Values after ≈ are worked out from the molar mass of the structure shown. A value given as a limit tells only on which side of the number the result lay.

For the data set the following is noted: buffer; pH 7.4; 200.0 µM.
In the case of `CC(C)(C)C(=O)N(Cc1ccccc1)c1ccccn1`, the kinetic solubility came to 40.2 µg/mL (≈ 150 µM). The same measure for `Cc1cc(NC(=O)Cn2c(=O)oc3ccc(Cl)cc32)no1`: 1.5 µg/mL (≈ 4.87 µM). Compound `CCCCNS(=O)(=O)c1cc2c3c(c1)CCN3C(=O)CC2` registered a kinetic solubility of 44.3 µg/mL (≈ 144 µM). Against the preceding compound, the solubility kinetic is about 30-fold higher. Next, `COc1cc2c(cc1OC)C(NC(=O)c1ccc(C)cc1)CC2=O` (configuration not stated): 4.6 µg/mL (≈ 14.1 µM). `C=CCN1C(=O)C2C3CC(=O)C(c4ccccc43)C2C1=O` (configuration not stated) came in with a kinetic solubility above 42.2 µg/mL. On to `COC(=O)c1c(NC(=O)C(Cl)Cl)sc2c1C(C(=O)OC)CC2` (configuration not stated), for which the kinetic solubility turned out to be 8.6 µg/mL (≈ 23.5 µM). Regarding `N#CC1=C(N)Oc2cc(N)ccc2C1c1cccc(Br)c1` (configuration not stated), the solubility (kinetic) turned out to be 3.5 µg/mL (≈ 10.2 µM). Against the preceding compound, the solubility kinetic is about 2.5-fold lower. Next, `COc1ccc(NC(=O)N2CCCCCC2)cc1OC`: above 41.8 µg/mL. For `NS(=O)(=O)c1cccc(NC(=O)COC(=O)c2cc([N+](=O)[O-])ccc2N2CCCC2)c1`, the solubility (kinetic) worked out at 9.7 µg/mL (≈ 21.6 µM). Compound `O=C(COC(=O)c1ccc[nH]c1=O)NCCC1=CCCCC1` had a solubility (kinetic) of 41.1 µg/mL (≈ 135 µM). The same measure for `O=C(Nc1cccc(Cl)c1)C1=CC=CN2CCS(=O)(=O)N=C12`: 7.1 µg/mL (≈ 21 µM). The same measure for `O=[N+]([O-])c1ncc(Br)cc1Nc1ccccc1`: 16.3 µg/mL (≈ 55.4 µM); for `NC(=O)CC1C(=O)N(c2ccccc2)C(=S)N1NC(=O)c1ccccc1` (configuration not stated): above 55.3 µg/mL. `O=C(COC(=O)c1ccccc1)NC(=O)NC1CCCC1` showed a kinetic solubility of 23.8 µg/mL (≈ 82 µM). The same measure for `Cn1c(N)c(-c2ccccc2)c2ccc([N+](=O)[O-])cc2c1=O`: 1.1 µg/mL (≈ 3.73 µM). `Cc1cccc(C)c1NC(=O)COC(=O)c1ccccc1O` displayed a solubility (kinetic) of 3 µg/mL (≈ 10 µM). The same measure for `COc1ccc(CCN2C(=NC(=O)C(C)C)SC3CS(=O)(=O)CC32)cc1` (configuration not stated): 6.6 µg/mL (≈ 16.6 µM); for `CC(C)(C)C(=O)C1=C(O)C(=O)N(Cc2ccccc2)C1c1ccccc1F` (configuration not stated): above 55.1 µg/mL. Compound `COC(=O)C(Cc1ccc(O)cc1)N1Cc2ccccc2C1=O` (configuration not stated) displayed a solubility (kinetic) above 46.7 µg/mL. `O=[N+]([O-])c1ccc(N(CC2CO2)S(=O)(=O)c2ccccc2)cc1` (configuration not stated) had a kinetic solubility of 41.9 µg/mL (≈ 125 µM). The same measure for `O=C(CN1C(=O)S/C(=C\C=C\c2ccccc2)C1=O)N1CCOCC1`: 7.8 µg/mL (≈ 21.8 µM); for `Cc1ccc(-c2nc(C#N)c(NCC3CCCO3)o2)cc1` (configuration not stated): 37 µg/mL (≈ 131 µM). The same measure for `Cc1ccc(S(=O)(=O)N2CCN(C(=O)C3CCCO3)CC2)cc1` (configuration not stated): 49.8 µg/mL (≈ 147 µM). Consider `CC(C)NC(=O)c1ccc(S(=O)(=O)N(C)C)cc1`, for which the solubility (kinetic) is above 40.6 µg/mL. Next, `Cn1ccnc1C(OC(=O)c1ccc(Cl)cc1)C(F)(F)F` (configuration not stated): above 47.8 µg/mL; `COc1cccc(NC(=O)CN(C)C(=O)c2ccccn2)c1`: above 44.9 µg/mL. Next, `O=C(O)C1C2CCC(C2)C1C(=O)NCCc1ccc(F)cc1` (configuration not stated): above 45.8 µg/mL; `O=C(NC12CC3CC(CC(C3)C1)C2)c1ccc([N+](=O)[O-])o1`: 34.9 µg/mL (≈ 120 µM); `CCN(CC(=O)NCc1cccs1)C(=O)c1cc(=O)[nH]c2ccccc12`: above 55.4 µg/mL. Turning to `Cc1cc(C)cc(NC(=O)Nc2cc(S(=O)(=O)N(C)C)ccc2C)c1`, the kinetic solubility was determined as 0.6 µg/mL (≈ 1.66 µM). The compound `COC(=O)Cc1c(O)ccn(Cc2ccc3c(c2)OCO3)c1=O` displayed a solubility (kinetic) above 47.6 µg/mL. The same measure for `O=C(O)/C=C/c1ccc(Oc2ncccn2)cc1`: above 36.3 µg/mL; for `CC(NC(=O)CNC(=O)c1cccc(Cl)c1)c1ccccc1` (configuration not stated): 43.7 µg/mL (≈ 138 µM). The same measure for `CC(C)S(=O)(=O)c1cnc(-c2cccnc2)nc1N`: 37.7 µg/mL (≈ 135 µM); for `O=C(CSc1nc2ccccc2o1)N/N=C/c1ccc(C(=O)O)cc1`: above 53.3 µg/mL. The same measure for `Cc1cc(C)c(NC(N)=S)c(C)c1`: above 29.1 µg/mL. With `CCOC(=O)COn1c(=O)c(-c2ccccc2)[n+]([O-])c2ccccc21`, the solubility (kinetic) worked out at 35.2 µg/mL (≈ 103 µM).

`Cc1ccc(C#CC[N+]2(C)CCCCC2)cc1.[Br-]` had a solubility (kinetic) above 46.2 µg/mL. Next, `Cc1ccc(F)cc1NC(=O)c1ccc(OCC2CCCO2)cc1` (configuration not stated): above 49.4 µg/mL; `COc1ccc(NC(=O)CCc2nc3ccccc3[nH]2)cc1`: 5.3 µg/mL (≈ 17.9 µM); `COc1ccccc1NC(=O)NC1CCCCCCC1`: 2.7 µg/mL (≈ 9.77 µM). Consider `CCC(C)NC(=O)c1cc2c(=O)n3ccccc3nc2s1` (configuration not stated), for which the solubility (kinetic) was 33 µg/mL (≈ 109 µM). This solubility kinetic is about 12-fold higher than that of the compound before. The same measure for `CCOC(=O)N1CCN(c2ccccc2OC)CC1`: above 39.6 µg/mL; for `Oc1ccc(/C=N/NC(=S)N2CCOCC2)cc1`: above 39.8 µg/mL. Next, `Cc1cc(C)cc(OCC(=O)Nc2ccncc2)c1`: 36.7 µg/mL (≈ 143 µM); `O=C(CCSc1ccccc1)Nc1ccccc1Br`: 6.6 µg/mL (≈ 19.6 µM); `CCOC(=O)N1CCC(NS(=O)(=O)c2ccc(C#N)cc2)CC1`: above 50.6 µg/mL.

The compound `COc1cccc(NC(=O)c2cc(-c3ccco3)nc3ccccc23)c1` gave a solubility (kinetic) below 0.4 µg/mL. `CC(C)(C)C1CCC(C(=O)Nc2nccs2)CC1` (configuration not stated) gave a kinetic solubility of 0.3 µg/mL (≈ 1.13 µM). For the compound `COn1c(C)c(C)c2c3nonc3ccc21`, the solubility (kinetic) stood at 8.9 µg/mL (≈ 41 µM). The same measure for `O=C(NC1CCCC1)C1CC(=O)N(c2ccc(F)cc2)C1` (configuration not stated): 38.4 µg/mL (≈ 132 µM). As for `O=C(COC(=O)c1c(F)cccc1Cl)NCC1CCCCC1`, the kinetic solubility was found to be 40.9 µg/mL (≈ 125 µM).

As for `CSc1ccc(Cl)c(C(=O)N2CCOc3ccccc32)c1`, the kinetic solubility was 13.5 µg/mL (≈ 42.2 µM). The same measure for `O=C(Nc1ccccc1Cl)C1CC(=O)N(c2ccccc2)C1` (configuration not stated): 33.4 µg/mL (≈ 106 µM); for `c1ccc(CNc2ncnc3sccc23)cc1`: 31.9 µg/mL (≈ 132 µM); for `O=C(CSc1cccc[n+]1[O-])C12CC3CC(CC(C3)C1)C2`: above 45.5 µg/mL.

`CCNC(=O)C(C)Oc1ccc(Cl)cc1Cl` (configuration not stated) showed a kinetic solubility above 39.3 µg/mL. Next, `CN(C)S(=O)(=O)c1cccc(NC(=O)COC(=O)c2cccnc2Cl)c1`: above 59.7 µg/mL; `Cc1cnc(C(=O)OCC(=O)c2cc(C)n(C)c2C)cn1`: above 43.1 µg/mL. `O=C(O)CSc1nnc(-c2cccc(S(=O)(=O)N3CCOCC3)c2)n1-c1ccc(F)cc1` showed a kinetic solubility above 71.8 µg/mL. Next, `COc1ccc(Nc2cc(C)nc3c(C)cccc23)cc1OC`: above 46.3 µg/mL; `COCC(=O)Nc1ccc(Br)cc1C`: 35.8 µg/mL (≈ 139 µM). As for `CCNC(=O)Cn1cc(C(F)(F)F)cc(Cl)c1=O`, the solubility (kinetic) was above 42.4 µg/mL. The compound `COc1ccccc1NC(=O)c1ccccc1NC(=O)c1cccs1` displayed a kinetic solubility below 0.4 µg/mL. With `CCOc1ccccc1/C=C(\C(=O)O)c1ccc(S(=O)(=O)N2CCCCC2)s1`, the solubility (kinetic) was above 63.2 µg/mL.

For `CNC(=O)NC(=O)CN1C(=O)NC2(CCOc3ccccc32)C1=O` (configuration not stated), the kinetic solubility was above 49.8 µg/mL. For `COc1cc(NC(c2ccccc2)c2ccccc2)cc(OC)c1OC`, the solubility (kinetic) is above 52.4 µg/mL. In turn, `COc1ccc(C(=O)OCC(=O)N2CCc3ccccc3C2)cc1OC` had a kinetic solubility above 53.3 µg/mL.

Compound `Cc1nc(=O)c(-c2ccccc2)c(C)n1-c1ccccc1Cl` yielded a solubility (kinetic) above 46.6 µg/mL.

`Cc1ccc(-n2c(O)c(C=NCc3ccccn3)c(=O)[nH]c2=S)cc1` yielded a kinetic solubility of 29.6 µg/mL (≈ 84 µM). As to `CCOc1ccc(NC(=O)N(CCN(C)C)C(C)c2cccnc2)cc1` (configuration not stated), the solubility (kinetic) is above 53.5 µg/mL.

Regarding `Cc1ccccc1C(=O)NC(=S)N(C)CCc1ccccn1`, the solubility (kinetic) was above 47 µg/mL. Next, `CCCC(=O)Nc1cc2c3c(c1)CCN3C(=O)CC2`: above 38.7 µg/mL. The same measure for `CC(NC(=O)c1ccc(C#N)cc1)C1CC2CCC1C2` (configuration not stated): above 40.3 µg/mL; for `CCNC(=O)Nc1ccc(S(=O)(=O)Nc2cnc(C)nc2C)cc1`: above 52.4 µg/mL; for `Cc1ccc(NC(=O)COCC(=O)Nc2ccc(F)cc2)cc1`: 37.3 µg/mL (≈ 118 µM).

Regarding `CCc1ccccc1NC(=O)C1COc2ccccc2O1` (configuration not stated), the kinetic solubility was 33.4 µg/mL (≈ 118 µM). The same measure for `CCS(=O)(=O)N1CCC(C(=O)Nc2cc([N+](=O)[O-])ccc2C)CC1`: above 53.3 µg/mL; for `O=C(CCN1C(=O)c2ccccc2S1(=O)=O)Nc1ccc(Cl)cc1`: 0.9 µg/mL (≈ 2.47 µM). The same measure for `Cc1cc(OC(=O)c2ccc(OC(C)C)cc2)c([N+](=O)[O-])c(=O)[nH]1`: above 49.8 µg/mL; for `O=S(=O)(c1cc(Cl)ccc1Cl)N1CCN2CCCC2C1` (configuration not stated): 47.5 µg/mL (≈ 142 µM). Turning to `CSc1ncc(C(=O)Nc2cccc(Cl)c2)c(C)n1`, the solubility (kinetic) was above 44.1 µg/mL.

`O=c1[nH]c(=O)n(-c2cccc(F)c2)c(O)c1/C=C1\C=Nc2ccccc21` gave a solubility (kinetic) of 2.9 µg/mL (≈ 8.3 µM). On to `CC(C)CN1CCN(Cc2ccc(C(F)(F)F)cc2)CC1CCO` (configuration not stated), for which the solubility (kinetic) was determined as 45.5 µg/mL (≈ 132 µM). The same measure for `CCN(CC)C(=O)N1CCN(C(=O)N2CCOCC2)CC1`: 30 µg/mL (≈ 101 µM); for `Cc1ccc(S(=O)(=O)Nc2cccnc2)cc1C`: 10.7 µg/mL (≈ 40.8 µM); for `COc1ccc(CCC(C)N2CCc3ccccc3C2)cc1` (configuration not stated): 39.1 µg/mL (≈ 132 µM).

The compound `CC1(C)CC2(CCO1)C(Nc1ccccc1)=NC(=S)N2CC(N)=O` (configuration not stated) had a kinetic solubility above 52 µg/mL. The compound `O=C(COC(=O)COc1ccc(Cl)cc1Br)NC1CC1` came in with a kinetic solubility above 54.4 µg/mL. The compound `O=S(=O)(NCCCN1CCOCC1)c1ccc(Cl)s1` registered a solubility (kinetic) of 48.4 µg/mL (≈ 149 µM). Next, `CCCCCCCCN=Cc1c(O)[nH]c(=O)[nH]c1=O`: 1 µg/mL (≈ 3.74 µM). As for `O=C(Nc1ccccc1)/C(=C\c1ccco1)NC(=O)c1ccco1`, the solubility (kinetic) was above 48.3 µg/mL. The same measure for `CC(OC(=O)c1cccs1)C(=O)NC1CC1` (configuration not stated): above 35.9 µg/mL.

The compound `NC(=O)c1cc(S(=O)(=O)NCc2ccc(F)cc2)cs1` yielded a kinetic solubility of 47 µg/mL (≈ 150 µM).

In turn, `COc1cccc(OC)c1CN(C)C(=O)c1cnccc1C(F)(F)F` registered a kinetic solubility above 53.1 µg/mL. Compound `CNc1nc(Cl)c(SC)c(NCc2ccc(F)cc2)n1` had a solubility (kinetic) of 0.6 µg/mL (≈ 1.92 µM). Next, `O=C(NCCN1CCN(C(=O)c2cccc(OC(F)F)c2)CC1)c1cccc(OC(F)F)c1`: above 70.4 µg/mL. With `COc1cc(Nc2ccc(S(N)(=O)=O)cc2)c([N+](=O)[O-])nc1[N+](=O)[O-]`, the solubility (kinetic) is 3.8 µg/mL (≈ 10.3 µM).

Consider `O=C(NCc1cccnc1)c1ccc([N+](=O)[O-])cc1`, for which the solubility (kinetic) was above 38.6 µg/mL. In turn, `O=C(NC(=S)Nc1ccccc1[N+](=O)[O-])c1ccccc1` came in with a kinetic solubility of 4.1 µg/mL (≈ 13.6 µM). The same measure for `CCC(Oc1ccccc1)C(=O)Nc1ccccc1N1CCCC1` (configuration not stated): 7.9 µg/mL (≈ 24.4 µM); for `O=S(=O)(Nc1ccccc1F)c1cccc(NC(=S)NCCN2CCOCC2)c1`: 51.6 µg/mL (≈ 118 µM).

For orientation: kinetic solubility means the concentration staying in solution when a stock, usually in DMSO, is diluted into the medium.
